Test results reported in PubChem BioAssay AID1963854 (Molecular Pharmacology Branch, DTP, NCI, 2024).
Values joined by “and” are separate entries in the source; they are usually repeats but may differ in a detail not shown here. Equal entries are not always repeated.

System: 186277-243-T-J2-PDC complex spheroid viability
Assay: Anticancer human tumor 186277-243-T-J2-PDC patient-derived colon adenocarcinoma cell line growth inhibition [POLQ]
Conditions: for viability, T/C: stronger effect = lower value
Method: Multicellular complex tumor spheroid response to Polymerase (POL) inhibitors (novobiocin, ART-558, RP6685) in combination with a variety of drugs and investigational agents in selected tumor cell lines
The POL inhibitors (novobiocin, ART-558, and RP6685) were evaluated both individually and in combination with standard of care and investigational anticancer small molecules within a complex spheroid model of solid tumors. . Complex spheroids include a stromal component modeled by human endothelial cells (HUVEC) and fibroblasts modeled by human mesenchymal stem cells (MSCs). The concentration ranges selected for each drug and investigational agent were based upon clinically achievable concentrations if the clinical Cmax of the agent was known.
Compounds. The drugs and investigational agents: novobiocin (NSC847541), ART-558 (NSC835418), RP-6685 (NSC848927), peposertib (NSC802822), ceralasertib (NSC780249), elimusertib (NSC800525), camonsertib (NSC841442), AZD-1390 (NSC803789), olaparib (NSC753686), talazoparib (NSC767125), rucaparib (NSC756644), sotorasib (NSC818433), MRTX-1133 (NSC836407), SN-38 (NSC673596), topotecan (NSC609699), epotoside (NSC141540), doxorubicin (NSC123127), gemcitabine (NSC613327), 5-fluorouracil (NSC19893), paclitaxel (NSC125973), vemurafenib (NSC761431), MSA-2 (NSC828583), SN-011 (NSC837082), adavosertib (NSC754352), prexasertib (NSC758257), carboplatin (NSC241240) and oxaliplatin (NSC266046), were obtained from the National Cancer Institute (NCI) Developmental Therapeutics Program Chemical Repository (21). The FDA-approved anticancer drug set is available from the Developmental Therapeutics Program at https://dtp.cancer.gov/organization/dscb/obtaining/. […] The stock solutions were prepared in dimethyl sulfoxide (DMSO, Sigma-Aldrich, St. Louis, MO, cat. D2650), except for the platinum compounds which were prepared in saline (Quality Biological, Gaithersburg, MD, cat. 114-055-101), at 800-fold the tested concentration and stored at -70 degrees C prior to their use. All drugs and investigational agents were tested over a range starting from a high concentration at or near the clinical Cmax and decreasing in half-log increments. If the clinical Cmax for an agent had not been determined, the highest concentration tested was 10 microM, except for SN-38, which was tested at a high concentration of 1 microM.
Cell Culture. All cells were maintained in an incubator at 37 degrees C and 5% CO2 with 95% humidity. The PDC lines were cultured according to standard operating procedures established by the NCI PDMR (https://pdmr.cancer.gov). Table 3 of the manuscript, lists the cell lines along with the number of the three cell types plated to form the mct-spheroids and media for tumor cell growth. After thawing, all PDC lines, except 997537-175-T-J1-PDC and 415267-285-R-J2-PDC, were cultured in Matrigel-coated flasks prepared with a working solution of 1X Ham's F-12 nutrient mix, without supplementation (Thermo Fisher Scientific, cat. 11765054), 100 U/mL penicillin-streptomycin (Thermo Fisher Scientific, cat. 15140122), and 2.5% Matrigel (Corning Inc., Corning, NY, cat. 354248) for the first three passages. The two PDC lines 997537-175-T-J1-PDC and 415267-285-R-J2-PDC were cultured on uncoated flasks. The 857933-349-R-J2-PDC line was cultured in 6C/Colon 1B media containing advanced DMEM/F-12 (Thermo Fisher Scientific, cat. 12634028), 10 mM HEPES (Thermo Fisher Scientific, cat. 15630080), 1X GlutaMAX supplement (Thermo Fisher Scientific, cat. 35050061), 0.1 mg/mL primocin (InvivoGen, San Diego, CA, cat. ant-pm-2), 10% defined fetal bovine serum, heat inactivated (HyClone Laboratories Inc., Logan, UT, cat. SH30070.03HI), 50% L-WRN conditioned media (ATCC, cat. CRL-3276), 1.25 mM N-Acetyl-L-cysteine (Sigma-Aldrich, cat. A9165), 10 mM nicotinamide (Sigma-Aldrich, cat. N0636), 1X B-27 supplement (Thermo Fisher Scientific, cat. 17504044), 1X N-2 supplement (Thermo Fisher Scientific, cat. […]

[1] = compound alone, run of 11/06/2023
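Also: spheroids exposed to compounds for seven days.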
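For viability, T/C in this document: 100% = DMSO vehicle control viability.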

| Structure (SMILES) | viability, T/C (compound 0.0316 µM) | viability, T/C (compound 0.1 µM) | viability, T/C (compound 0.316 µM) | viability, T/C (compound 1 µM) | viability, T/C (compound 3.16 µM) | viability, T/C (compound 10 µM) | IC50 (compound alone, run of 10/31/2023) [µM] | IC50 [1] [µM] | viability, T/C (compound 0.000316 µM) | viability, T/C (compound 0.001 µM) | viability, T/C (compound 0.00316 µM) | viability, T/C (compound 0.01 µM) | IC50 (curve of compound) |
| --- | --- | --- | --- | --- | --- | --- | --- | --- | --- | --- | --- | --- | --- |
| Cc1cccc(N(C)C(=O)C2C(O)CCN2c2nc(C)cc(C(F)(F)F)c2C#N)c1 (centres undefined) | 107% [middle of 13 runs] | 102% [middle of 13 runs] | 99.1% [middle of 13 runs] | 97.2% [middle of 13 runs] | 95.9% [middle of 13 runs] | 92.7% [middle of 13 runs] | > 10 | > 10 |  |  |  |  |  |
| Cn1ncnc1[C@H]1c2n[nH]c(=O)c3cc(F)cc(c23)N[C@@H]1c1ccc(F)cc1 | 118% and 137% and 114% | 109% and 124% and 103% |  |  |  |  |  |  | 102% and 96.7% and 107% | 100% and 97.4% and 94.3% | 104% and 101% and 97% | 118% and 100% and 105% | > 0.1 µM |
| Nc1ccc(C#CCN(C(=O)Cc2ncc(C(F)(F)F)cc2C(F)(F)F)c2ccc(F)cc2)nn1 | 103% [middle of 13 runs] | 102% [middle of 13 runs] | 98.7% [middle of 13 runs] | 101% [middle of 13 runs] | 94.9% [middle of 13 runs] |  |  | > 10 |  |  |  |  |  |
| Nc1ccn(C2OC(CO)C(O)C2(F)F)c(=O)n1 (centres undefined) | 7.08% and 13.1% and 7.05% | 6.01% and 12.5% and 5.9% | 7.05% and 13.8% and 6.01% | 8.16% and 14.3% and 6.86% | 7.56% and 13.9% and 6.67% | 6.46% and 13.6% and 5.49% |  |  |  |  |  |  | < 0.0316 µM |
| O=C(Nc1ccc(O)c(NS(=O)(=O)c2ccc(F)cc2)c1)c1ccc(-c2ccccc2)cc1 | 108% and 109% and 99.2% | 95.9% and 81.3% and 96.8% | 103% and 90% and 102% | 93.1% and 95.4% and 95.7% | 114% and 98.8% and 102% | 98% and 116% and 94.2% |  |  |  |  |  |  | > 10 µM |
| O=C(c1cc(Cc2n[nH]c(=O)c3ccccc23)ccc1F)N1CCN(C(=O)C2CC2)CC1 | 92.4% and 106% and 120% | 98.8% and 100% and 84.5% | 103% and 102% and 101% | 107% and 106% and 104% | 110% and 111% and 128% | 79.3% and 62% and 111% |  |  |  |  |  |  | > 10 µM |
| O=c1[nH]cc(F)c(=O)[nH]1 | 88.9% and 104% and 92.7% | 89.7% and 103% and 117% | 97.9% and 120% and 108% | 98% and 95% and 112% | 77% and 103% and 69.6% | 48.4% and 63.8% and 49.9% |  |  |  |  |  |  | 9.37 µM and > 10 µM |
